Assay results reported in patent US8513430B2, “Substituted thiazol-2-ylamine derivatives, pharmaceutical compositions, and methods of use as 11-beta HSD1 modulators” (High Point Pharmaceuticals, LLC, priority 2010, dated 2013).

How the values were obtained:
11βHSD1 [1] = molecular target: T1, 11βHSD1 (Homo sapiens, UniProt P28845); test: in vitro 11β-HSD assay (human microsomes, CISBIO cortisol kit); assay type: biochemical; conditions: 160 nM cortisone, 200 μM NADPH, 2 h at 37° C., pH 6.0
T1 construct: from tissue
Experimental: The following assay methods were used to identify and evaluate compounds of Formula (I) that are effective in modulating 11βHSD1.
CISBIO Cortisol kit #62CO2PEB
Assay Buffer: (water based) used for Enzyme, Compounds and Microsomes: 20 mM Tris, 5 mM EDTA, and pH 6.0.
Enzyme Buffer: 333 μM NADPH (FAC 200 μM) and 266 nM Cortisone (FAC 160 nM).
1) Test compounds (10 mM stock in 100% DMSO) were diluted in Assay Buffer (see below) with 1% DMSO FAC and placed into the 96-well plate. Test compounds were typically tested over 10 concentrations (30 μM-0.3 nM).
2) 30 μL Enzyme Buffer, 10 μL Test Compound, 10 μL human microsomes were added to the test compounds and mixed gently by tapping the plate.
3) The plates were incubated for 2 h at 37° C.
4) 25 μL anti Cortisol-K and 25 μL Cortisol d2 were added to the plate and mixed gently by tapping the plate.
5) The plates were incubated at room temperature for 2 h.
6) The plates were read on an Envision model 2120 Perkin-Elmer using emission filters #205 and #217.

11βHSD1 [2] = molecular target: T1, 11βHSD1; test: Human adipocytes cell based assay (cortisone to cortisol, ELISA); conditions: human omental adipocytes, 300 nM cortisone, 24 hours at 37° C.
Experimental: Human Adipocytes Cell Based Assay
Cells were ordered from ZenBio, RTP, NC (www.zen-bio.com (OA-1096-3)) pre-plated (96 well). Cell Media was supplied by ZenBio (Omental Adipocyte Medium #OM-AM).
Test compounds were prepared at 10 concentrations (10 μM-0.1 nM). Dilutions were made up in Cell Media. Cell Media from the plate is aspirated and 97 μL was added to the wells.
The plates were incubated for 15 minutes (37° C.).
3 μL of […] cortisone (Sigma #C2755) (300 nM FAC) was added, for a total well volume of 100 μL.
The plates were incubated for 24 hours (37° C.).
The media was harvested from cells.
The samples were then assayed using Cortisol ELISA Kits (R & D Systems #SKGE008). Samples were diluted by a factor of 5. Specific instructions were included in the kit to quantify presence of cortisol in samples through an ELISA assay.
The plates were read on a Spectramax at 450 nm OD.

T1 sequence (P28845 whole entry): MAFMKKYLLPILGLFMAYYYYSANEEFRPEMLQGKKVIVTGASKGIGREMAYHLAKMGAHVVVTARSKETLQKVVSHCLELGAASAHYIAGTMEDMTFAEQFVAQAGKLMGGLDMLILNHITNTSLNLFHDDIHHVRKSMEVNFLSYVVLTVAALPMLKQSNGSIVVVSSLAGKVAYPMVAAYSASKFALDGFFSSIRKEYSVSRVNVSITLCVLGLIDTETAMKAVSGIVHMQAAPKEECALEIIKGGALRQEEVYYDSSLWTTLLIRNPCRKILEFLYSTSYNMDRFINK

Row | SMILES | EC50 (11βHSD1 [1]) [nM] | IC50 (11βHSD1 [2]) [nM]
1 | O=C(N[C@H]1C2CC3CC1C[C@](O)(C3)C2)c1csc(NCc2ccco2)n1 [Example 1, 2-[(Furan-2-ylmethyl)-amino]-thiazole-4-carboxylic acid [(E)-5-hydroxy-adamantan-2-yl]-amide] | 360 | 
2 | O=C(N[C@H]1C2CC3CC1C[C@](O)(C3)C2)c1csc(Nc2ccc(Cl)cn2)n1 [Example 2, 2-(5-Chloro-pyridin-2-ylamino)-thiazole-4-carboxylic acid [(E)-5-hydroxyadamantan-2-yl]-amide] | 31 | 19
3 | O=C(N[C@H]1C2CC3CC1C[C@](O)(C3)C2)c1csc(Nc2ccncc2)n1 [Example 3, 2-(Pyridin-4-ylamino)-thiazole-4-carboxylic acid [(E)-5-hydroxy-adamantan-2-yl]-amide] | 110 | 
4 | O=C(N[C@H]1C2CC3CC1C[C@](O)(C3)C2)c1csc(Nc2cccnc2)n1 [Example 4, 2-(Pyridin-3-ylamino)-thiazole-4-carboxylic acid [(E)-5-hydroxy-adamantan-2-yl]-amide] | 26 | 
5 | O=C(N[C@H]1C2CC3CC1C[C@](O)(C3)C2)c1csc(Nc2ccccn2)n1 [Example 5, 2-(Pyridin-2-ylamino)-thiazole-4-carboxylic acid [(E)-5-hydroxy-adamantan-2-yl]-amide] | 4000 | 
6 | O=C(N[C@H]1C2CC3CC1C[C@](O)(C3)C2)c1csc(NCCc2ccccc2)n1 [Example 6, 2-(2-Phenyl-ethylamino)-thiazole-4-carboxylic acid [(E)-5-hydroxy-adamantan-2-yl]-amide] | 11 | 
7 | O=C(N[C@H]1C2CC3CC1C[C@](O)(C3)C2)c1csc(NCCc2ccccn2)n1 [Example 7, 2-(2-Pyridin-2-yl-ethylamino)-thiazole-4-carboxylic acid [(E)-5-hydroxy-adamantan-2-yl]-amide] | 127 | 
8 | O=C(N[C@H]1C2CC3CC1C[C@](O)(C3)C2)c1csc(Nc2ccc(C(F)(F)F)cc2)n1 [Example 8, 2-(4-Trifluoromethyl-phenylamino)-thiazole-4-carboxylic acid [(E)-5-hydroxy-adamantan-2-yl]-amide] | 13 | 
9 | COc1ccc(Nc2nc(C(=O)N[C@H]3C4CC5CC3C[C@](O)(C5)C4)cs2)cc1 [Example 9, 2-(4-Methoxy-phenylamino)-thiazole-4-carboxylic acid [(E)-5-hydroxy-adamantan-2-yl]-amide] | 2 | 
10 | O=C(N[C@H]1C2CC3CC1C[C@](O)(C3)C2)c1csc(Nc2ccc(Cl)cc2)n1 [Example 10, 2-(4-Chloro-phenylamino)-thiazole-4-carboxylic acid [(E)-5-hydroxy-adamantan-2-yl]-amide] | 8.7 | 
11 | O=C(N[C@H]1C2CC3CC1C[C@](O)(C3)C2)c1csc(Nc2ccc(F)cc2)n1 [Example 11, 2-(4-Fluoro-phenylamino)-thiazole-4-carboxylic acid [(E)-5-hydroxy-adamantan-2-yl]-amide] | 2.7 | 
12 | O=C(N[C@H]1C2CC3CC1C[C@](O)(C3)C2)c1csc(Nc2ccc(Cl)c(Cl)c2)n1 [Example 12, 2-(3,4-Dichloro-phenylamino)-thiazole-4-carboxylic acid [(E)-5-hydroxy-adamantan-2-yl]-amide] | 112 | 
13 | O=C(N[C@H]1C2CC3CC1C[C@](O)(C3)C2)c1csc(NCc2cccnc2)n1 [Example 13, 2-[(Pyridin-3-ylmethyl)-amino]-thiazole-4-carboxylic acid [(E)-5-hydroxy-adamantan-2-yl]-amide] | 39 | 
14 | O=C(N[C@H]1C2CC3CC1C[C@](O)(C3)C2)c1csc(NCc2ccccc2)n1 [Example 14, 2-Benzylamino-thiazole-4-carboxylic acid [(E)-5-hydroxy-adamantan-2-yl]-amide] | 78 | 
15 | O=C(N[C@H]1C2CC3CC1C[C@](O)(C3)C2)c1csc(NCCc2cccnc2)n1 [Example 15, 2-(2-Pyridin-3-yl-ethylamino)-thiazole-4-carboxylic acid [(E)-5-hydroxy-adamantan-2-yl]-amide] | 165 | 
16 | O=C(N[C@H]1C2CC3CC1C[C@](O)(C3)C2)c1csc(NCCc2ccncc2)n1 [Example 16, 2-(2-Pyridin-4-yl-ethylamino)-thiazole-4-carboxylic acid [(E)-5-hydroxy-adamantan-2-yl]-amide] | 369 | 
17 | O=C(N[C@H]1C2CC3CC1C[C@](O)(C3)C2)c1cnc(Nc2ccc(Cl)cn2)s1 [Example 17, 2-(5-Chloro-pyridin-2-ylamino)-thiazole-5-carboxylic acid [(E)-5-hydroxy-adamantan-2-yl]-amide] | 31 | 
18 | Cc1nc(NCCc2ccccc2)sc1C(=O)N[C@H]1C2CC3CC1C[C@](O)(C3)C2 [Example 18, 4-Methyl-2-phenethylamino-thiazole-5-carboxylic acid [(E)-5-hydroxy-adamantan-2-yl]-amide] | 48 | 
